Measurements from patent publication US6482800B1, “Methods to stimulate angiogenesis” (The University of Southern California, priority 1998, dated 2002).
Entries after “also recorded” stand apart in the source; their conditions may differ. Square brackets hold non-standard residues; d marks the D form. Ends that are not written are not given here. Nle = CCCC[C@H](N)C(=O)O

How the values were obtained:
[1] = Unspecified test of effectiveness of AII fragments
[2] = system: Ischemic Myocardial Tissue; assay: Formation of collateral circulation in ischemic myocardial tissue after coronary artery ligation; type: in vivo, Rabbits; conditions: rabbit, peptide 1 mg/ml; for Number of blood vessels present in the infarct site, Mean ± SEM: left circumflex and left anterior descending arteries ligated, 0.05 ml in Hydron vehicle injected in cardiac muscle, necropsy from day 7, microscopic examination; for Vascularization of the infarct site: 0.05 ml injected distal to coronary occlusion, versus vehicle
Experimental: Rabbits underwent a surgical procedure under intramuscular anesthesia (Ketamine and Rompum) after shaving with animal clippers and preparation with betadine and isopropyl alcohol. A midline sternotomy was performed. After exposure of the pericardial sac, a three centimeter incision was made into the pericardium. After visualization of the epicardial surface, two coronary arteries, the left circumflex and the left anterior descending arteries, were exposed and ligated by 4-0 Vicryl suture. Vehicle (10% Hydron, 60% ethanol and 1% polyethylene glycol), with or without peptide (1 mg/ml, 0.05 ml) was injected in the cardiac muscle distal to the site of coronary occlusion. The sternum was then closed with 2-0 Silk. The muscle and skin were then closed with 3-0 Dexon II suture. Starting at 7 days after surgery, the animals were euthanized and necropsies performed. The number of blood vessels present in the infarct site was assessed grossly and by microscopic evaluation.

[3] = system: Living skin equivalent (LSE) graft tissue; assay: Engraftment of living skin equivalent (LSE) on full thickness skin excision; type: in vivo, Swiss nude mice; conditions: LSE soaked 15 minutes in 1.0 mg/ml peptide; day 7; compared to untreated LSE
Experimental: Male Swiss nude mice (22-24 g) were anesthetized with an intramuscular injection of Ketaset/Rompun and a 1 cm×1 cm full thickness skin excision was made on their dorsal surface. Living skin equivalent (LSE) was placed in the defect and trimmed with microscissors so that no gap was observed between the edges of the mouse skin and the LSE. The mice were divided into 6 groups based upon the peptide tested: (0 [LRS-Dextrose], or 1.0 mg/ml AII or AII analogues, AII (1-7) [SEQ ID NO:4]; Ala4AIII [SEQ ID NO:18]; Pro3AII [SEQ ID NO:31]; and Ile8AII [SEQ ID NO: 42]; see Table 3) and the LSE was soaked for 15 minutes in lactated Ringers solution with 5% dextrose with or without peptides prior to placement. After the graft was placed, the dorsal surface of the mouse was covered by petrolatum-embedded gauze followed by two adhesive bandages. After recovery from anesthesia, the mice were returned to their individual cages and observed daily until euthanasia. The mice received intramuscular analgesia for the first three days after surgery. No mouse lost its bandages prior to necropsy or bandage removal on day 7. The mice were necropsied on day 7. At necropsy, the degree of graft take and the appearance of the grafted tissue was noted prior to placement of the biopsy in 10% buffered formalin in preparation for paraffin embedding and section for hematoxylin and eosin staining.

burn areas = assay: Partial thickness thermal injury model; type: in vivo, Hartley guinea pigs; conditions: 1 mg/ml peptide in 10% low-viscosity CMC, topical on burn; day 7
rabbit corneal eye = rabbit corneal eye model; cited from earlier work
[4] = system: chick chorioallantoic membrane; conditions: chick chorioallantoic membrane model; cited from earlier work
rat kidneys = conditions: cited from earlier work
AT2 receptor = target: T1, AT2 receptor (Homo sapiens, UniProt P50052); conditions: cited from earlier work
T1 sequence (P50052 1-363): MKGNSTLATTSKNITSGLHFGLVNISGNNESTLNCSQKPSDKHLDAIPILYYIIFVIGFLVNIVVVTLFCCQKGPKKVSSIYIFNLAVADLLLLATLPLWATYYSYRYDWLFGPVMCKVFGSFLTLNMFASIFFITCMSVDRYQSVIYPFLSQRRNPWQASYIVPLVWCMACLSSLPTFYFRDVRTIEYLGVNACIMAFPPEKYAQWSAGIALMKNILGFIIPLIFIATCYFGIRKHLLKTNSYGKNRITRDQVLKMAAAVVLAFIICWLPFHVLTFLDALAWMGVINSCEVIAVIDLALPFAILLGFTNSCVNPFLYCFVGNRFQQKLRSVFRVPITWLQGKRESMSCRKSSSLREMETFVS

Substance	Number of blood vessels present in the infarct site, Mean ± SEM [2]	Vascularization of the infarct site [2]	other results
Tyr-Ile-His-Pro-Phe (YIHPF) [AII(4-8)]			Effectiveness (test not specified) [1]: not to be effective; also recorded: ineffective
DR(nor)YIHP (DR[Nle]YIHP) [Analogue 9GD]	21.2 ± 2.8	increase vascularization	
Asp-Arg-Val-Tyr-Ile-His-Pro-Phe [AII]	29.8 ± 12.3	increase vascularization	Angiogenesis (vascular channel formation) in graft tissue [3]: increased; Endothelial cell production in graft tissue [3]: increased; Blood flow response (angiogenesis) after thermal injury, compared to control (burn areas): increased blood flow response compared to control; Angiogenic activity (rabbit corneal eye): angiogenic; Angiogenic activity [4]: angiogenic; Activation of collateral circulation via preformed blood vessels (rat kidneys): activate collateral circulation
DRKYIHP [Analogue 5GD]	24.55 ± 2.34	increase vascularization	
Asp-Arg-Val-Tyr-Ile-His-Pro-Phe (DRVYIHPF) [AII]			Affinity for AT2 relative to AT1 (AT2 receptor): 100 times
His-Pro-Phe (HPF) [AII(6-8)]			Effectiveness (test not specified) [1]: not to be effective
Asp-Arg-Val-Tyr-Ile-His-Pro (DRVYIHP) [AII(1-7)]	80.6 ± 4.5	increase vascularization	
DRPYIHP [Analogue 2GD]	31.2 ± 5.62	increase vascularization	
DRVAIHP [Analogue 1GD]	23.4 ± 8.6	increase vascularization	
